US6462045B1, “Method of treating pulmonary hypertension” (Orion Corporation, priority 1998, dated 2002)

What was measured:
patients = assay: Experiment 1: levosimendan infusion for 24 hrs in 95 patients, change in mean pulmonary artery pressure; format: in vivo, human; conditions: infusion 0.05, 0.1, 0.2, 0.4 and 0.6 μg/kg/min for 24 hrs, FIG. 1
Method: Levosimendan (LS) was administered by infusion (0.05-0.6 μg /kg/min) to totally 95 patients (n=14-23 per group) in amounts of 0.05, 0.1, 0.2, 0.4 and 0.6 μg/kg/min for 24 hrs. The change in the mean pulmonary artery pressure was determined.
------ is placebo, --O-- is vehicle, --[…]-- is dobutamine,
— is LS 0.05 μg/kg/min, —C— is LS 0.1 μg/kg/min, —□— is LS 0.2 μg/kg/min,
—⋄— is LS 0.4 μg/kg/min, —Δ— is LS 0.6 μg/kg/min

[1] = test system: patient with pulmonary hypertension; assay: Experiment 2: levosimendan infusion for 5.5 hrs in a patient with pulmonary hypertension, mean pulmonary artery pressure; format: in vivo, human
Method: Levosimendan was administered by infusion (0.1-0.4 μg/kg/min) to a patient with pulmonary hypertension in amounts of 0.1, 0.2 and 0.4 μg/kg/min for 5.5 hrs. At 0.25 h the infusion rate was 0.1 μg/kg/min, at 2.00 h the infusion rate was increased to 0.2 μg/kg/min and at 4.5 h the infusion rate was increased to 0.4 μg/kg/min. The change in the mean pulmonary artery pressure (MPAP) was determined.
Table 1. The change of mean pulmonary artery pressure (NPAP) during levosimendan infusion. 0.25 h infusion rate 0.1 μg/kg/min, 2.00 h infusion rate 0.2 μg/kg/min, 4.5 h infusion rate 0.4 μg/kg/min.

**Q.** What does the source list for CC1CC(=O)NN=C1c1ccc(NN=C(C#N)C#N)cc1 (single isomer, unassigned; (-)) [levosimendan, (−)-[[4-(1,4,5,6-tetrahydro-4-methyl-6-oxo-3-pyridazinyl)phenyl]hydrazono]propanedinitrile]?
**A.** change in the mean pulmonary artery pressure (patients): able to significantly lower pulmonary artery pressure; change in the mean pulmonary artery pressure (MPAP) ([1]; infusion 0.1, 0.2 and 0.4 μg/kg/min for 5.5 hrs, one patient with pulmonary hypertension): able to significantly lower pulmonary artery pressure; MPAP ([1]; time 0 h (before the 0.1 μg/kg/min infusion rate at 0.25 h)): 41 mmHg; MPAP ([1]; time 0.75 h, infusion rate 0.1 μg/kg/min): 42 mmHg; MPAP ([1]; time 1.25 h, infusion rate 0.1 μg/kg/min): 42 mmHg; MPAP ([1]; time 1.75 h, infusion rate 0.1 μg/kg/min): 39 mmHg; MPAP ([1]; time 2.50 h, infusion rate 0.2 μg/kg/min): 34 mmHg; MPAP ([1]; time 3.00 h, infusion rate 0.2 μg/kg/min): 35 mmHg; MPAP ([1]; time 3.50 h, infusion rate 0.2 μg/kg/min): 35 mmHg; MPAP ([1]; time 4.00 h, infusion rate 0.2 μg/kg/min): 32 mmHg; MPAP ([1]; time 5.00 h, infusion rate 0.4 μg/kg/min): 27 mmHg; MPAP ([1]; time 5.50 h, infusion rate 0.4 μg/kg/min): 29 mmHg
